From US6241963A, “Dopamine and serotonin transporter ligands and imaging agents” (priority 1996, dated 2001)
Values joined by “and” are separate entries in the source; they are usually repeats but may differ in a detail not shown here. Equal values may be shown once. “Also recorded” adds a separate entry of the source. Read-outs that look alike come from different tables or passages of the source.

Key:
dopamine transporters [1] = target: T1, dopamine transporters (Rattus norvegicus, UniProt P23977); format: in vivo, Male Sprague-Dawley rats; conditions: rats, iv
Procedure: For dopamine transporter imaging agents, the target area of the brain is the striatum, where dopamine transporters are highly concentrated. The cerebellum region is suitable for use as the background region, because it has no dopamine transporters. The specific uptake is measured by the ratio of % dose/gram of striatum divided by % dose/gram of cerebellum (ST/CB ratio)--the higher the value, the better the specific uptake, and the more promising as a dopamine transporter imaging agent.
(§1) Regional brain distribution in rats was obtained after an injection of 1.19a, 1.19b, 1.20a, 1.20b or 1.21. Samples from different brain regions (cortex, striatum, hippocampus, and cerebellum) were dissected, weighed and counted, and the percentage dose per gram of sample was calculated by comparing the sample counts with the count of the diluted initial dose. The uptake ratio of each region was obtained by dividing the percentage dose per gram of that region by that of the cerebellum. For blocking studies, rats were injected with either β-CIT or haloperidol (iv, 1 mg/Kg) 5 min prior to injection of 1.19a. The rats were dissected and brain tissue samples were counted as described above. The specific uptake of the compound was expressed as ratio of ST/CB (% dose/g of striatum divided by the same of cerebellum).
The major criteria for determining the potential usefulness of in vivo dopamine transporter imaging agents are based on an animal biodistribution study. In this case, rats were used as an animal model. After an intravenous injection of the Tc-99m labeled compounds, the values of initial brain uptake (% dose/whole organ) at 2 minutes post intravenous injection are used to measure the ability to penetrate the intact blood-brain barrier. Compounds displaying higher brain uptake are the better agents (minimum requirement >0.1% dose in brain). The second criteria is the specific uptake in the striatum region of the brain, where dopamine transporters are located. The uptake value (% dose/gram) of the striatum (ST) is divided by the background area, cerebellum (CB; essentially devoid of dopamine transporter); the ratio of ST/CB is an indicator for specific uptake (minimum requirement for ST/CB >1.5). Five structurally similar tropane derivatives were examined in this biological study. (Tables 1.1 to 1.4).
as §1, with “3.24 to 3.34.” for “1.19a, 1.19b, 1.20a, 1.20b or 1.21.”, “3.25.” for “1.19a.”, “above.” for “above. The specific uptake of the compound was expressed as ratio of ST/CB (% dose/g of striatum divided by the same of cerebellum).”

dopamine transporters [2] = experiment: SPECT imaging in a baboon, co-registered with MRI; format: in vivo; conditions: 60-90 min post iv injection of 9 mCi
Procedure: A baboon (~15 kg) was the subject of a SPECT imaging study. Prior to imaging, the animal was fasted, immobilized with ketamine (10-20 mg/kg, i.m.) and xylazine (2-3 mg/kg, i.m.), intubated and maintained on a 1.5-2.0% isofluorane/98.5% oxygen mixture (flow rate of 200-500 cc/min). […] Body temperature was maintained using a hot water circulating heating pad and was monitored with a rectal thermometer. The animal's head was immobilized using a vacuum-packed bean-bag device that hardens upon evacuation when molded around the head. No-carrier-added [^99m Tc]TRODAT-1 (1.19a; 9 mCi) was administered as an intravenous bolus in the saphenous vein of the baboon. Immediately after injection, sequential 5 minute per frame dynamic SPECT scans were acquired on a triple-headed Picker Prism 3000 camera (FWHM: 7 mm) equipped with fan beam collimators for 2 hours. The acquisition parameters were a 20% energy window at 140 KeV, 120 projection angles over 360 degrees, a 128×128 matrix, and a zoom factor of 1.78 in a slice thickness of 2 mm. The projection data was reconstructed with a count dependent 3-D Wiener filter. Chang's first order correction method was used to compensate for attenuation. Magnetic resonance images (MRI) of the baboon brain were acquired with a 1.5 Tesla machine (GE Medical Systems, Milwaukee, Wis.). […]

dopamine transporters [3] = target: T1, dopamine transporters; experiment: In vitro autoradiography of rat brain sections; format: binding, Male Sprague-Dawley rats; conditions: rat brain coronal sections
Procedure: Male Sprague-Dawley rats ([…]) were sacrificed by decapitation, and the brains were removed, placed in OTC embedding medium (Miles Laboratory, Elkhart, Ind.) frozen in powdered dry ice. After equilibration to -15° C., 20 μm coronal sections were sliced on a cryostat (Hacker Instruments, Fairfield, N.J.), thaw mounted onto gelatin-coated slides, desiccated at 4° C. for 3 hours and kept at -70° C. until use. Prior to the experiment, the slides were dried at room temperature and preincubated for 30 minutes in buffer containing 50 mM Tris-HCl (pH 7.4, 120 mM NaCl). The slides were then incubated for 2 hours in preincubation buffer and the [^99m Tc] compound 3.25 (385,000 cpm/200 μL) in a coplan jar, washed for 1 hour in cold Tris buffer, with one change of buffer, dipped in ice-cold water to remove buffer salts and allowed to dry at room temperature. Nonspecific binding was determined in the presence of 1 μM IPT. These slides were simultaneously exposed to DuPont x-ray film in an autoradiographic cassette for 18 hours. The exposed film was developed with a Kodak automatic film processor.

[4] = rat, cited from earlier work

T1 sequence (P23977 whole entry): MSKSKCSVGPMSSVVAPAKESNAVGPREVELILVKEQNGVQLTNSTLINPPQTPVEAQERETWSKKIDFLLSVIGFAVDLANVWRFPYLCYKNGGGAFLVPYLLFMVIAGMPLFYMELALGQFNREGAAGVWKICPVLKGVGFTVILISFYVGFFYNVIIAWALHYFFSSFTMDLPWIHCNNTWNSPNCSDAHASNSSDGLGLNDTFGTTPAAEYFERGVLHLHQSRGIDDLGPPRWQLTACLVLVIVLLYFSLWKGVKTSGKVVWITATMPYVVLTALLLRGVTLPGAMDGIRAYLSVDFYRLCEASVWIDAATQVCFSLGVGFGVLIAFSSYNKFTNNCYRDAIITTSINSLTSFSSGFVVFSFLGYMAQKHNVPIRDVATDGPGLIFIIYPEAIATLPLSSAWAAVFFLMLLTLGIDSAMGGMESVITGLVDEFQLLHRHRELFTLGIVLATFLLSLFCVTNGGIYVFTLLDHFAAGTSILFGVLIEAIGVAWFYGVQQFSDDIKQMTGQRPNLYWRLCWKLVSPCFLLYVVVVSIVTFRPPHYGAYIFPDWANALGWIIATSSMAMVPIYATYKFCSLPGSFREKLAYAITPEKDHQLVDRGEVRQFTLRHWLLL

CN1[C@H]2CC[C@@H]1[C@@H](C[N+]13CC[S][99Tc-]14(=[O])[S]CC[N]4CC3)[C@@H](c1ccc(Cl)cc1)C2 (stereo partly shown) [Compound 1.19a]
ST/CB ratio, 2 min (dopamine transporters [1]; 2 min): 0.93 ± 0.23 | ST/CB ratio, 30 min (dopamine transporters [1]; 30 min): 2.04 ± 0.18 | ST/CB ratio, 30 min (dopamine transporters [1]; 30 min, listed as TRODAT-1): 2.0 | ST/CB ratio, 60 min (dopamine transporters [1]; 60 min): 2.66 and 2.66 ± 0.01 | ST/CB ratio, 120 min (dopamine transporters [1]; 120 min): 3.90 ± 1.33 | ST/CB ratio, 240 min (4 hours) (dopamine transporters [1]; 240 min): 4.07 | ST/CB ratio, 360 min (dopamine transporters [1]; 360 min): 2.97 ± 0.14 | SPECT localization in brain (dopamine transporters [2]): excellent consistence with the expected localization of this agent in caudate and putamen areas; also recorded: A high accumulation

COC(=O)C1C(c2ccc(Cl)cc2)CC2CCC1N2CC[S][99Tc-]12(=[O])[S]CC[N+]1(C)CC[S]2 [Compound 3.25, [^99m Tc] technetium, [methyl 3-(4-chlorophenyl)-8-(2-mercaptoethyl)-8-azabicyclo [3.2.1]octane-2-carboxylato-S][[2,2'-(methylimino)bis[ethanethiolato]](2-)-N,S,S']oxo]
Cerebellum, 2 min (dopamine transporters [1]; 2 min): 0.066 ± 0.017 % dose/g | Cortex, 2 min (dopamine transporters [1]; 2 min): 0.060 ± 0.009 % dose/g | Hippocampus, 2 min (dopamine transporters [1]; 2 min): 0.046 ± 0.005 % dose/g | ST/CB ratio, 2 min (dopamine transporters [1]; 2 min): 0.82 | Striatum, 2 min (dopamine transporters [1]; 2 min): 0.054 ± 0.010 % dose/g | Cerebellum, 30 min (dopamine transporters [1]; 30 min): 0.027 ± 0.006 % dose/g | Cortex, 30 min (dopamine transporters [1]; 30 min): 0.038 ± 0.007 % dose/g | Hippocampus, 30 min (dopamine transporters [1]; 30 min): 0.028 ± 0.008 % dose/g | ST/CB ratio, 30 min (dopamine transporters [1]; 30 min): 2.2 | Striatum, 30 min (dopamine transporters [1]; 30 min): 0.060 ± 0.011 % dose/g | Cerebellum, 60 min (dopamine transporters [1]; 60 min): 0.018 ± 0.001 % dose/g | Cortex, 60 min (dopamine transporters [1]; 60 min): 0.026 ± 0.002 % dose/g | Hippocampus, 60 min (dopamine transporters [1]; 60 min): 0.025 ± 0.003 % dose/g | ST/CB ratio, 60 min (dopamine transporters [1]; 60 min): 3.5 | Striatum, 60 min (dopamine transporters [1]; 60 min): 0.063 ± 0.001 % dose/g | Cerebellum, 120 min (dopamine transporters [1]; 120 min): 0.011 % dose/g | Cortex, 120 min (dopamine transporters [1]; 120 min): 0.015 % dose/g | Hippocampus, 120 min (dopamine transporters [1]; 120 min): 0.011 % dose/g | ST/CB ratio, 120 min (dopamine transporters [1]; 120 min): 2.8 | Striatum, 120 min (dopamine transporters [1]; 120 min): 0.031 % dose/g | Autoradiographic regional labeling (dopamine transporters [3]): elevated labeling in striatum, major islands of Calleja and olfactory tubercle regions; also recorded: intense labeling in caudate putamen and olfactory tubercle; also recorded: localized in caudate putamen and olfactory tubercle | Initial brain uptake at 2 minutes ([4]; 2 min post iv injection (Meegalla 1995)): 0.1% | ST/CB ratio at 60 minutes ([4]; 60 min after iv injection (Meegalla 1995)): 3.50
